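Where inhibition never reached the appropriate level, the endpoint shown equals the highest concentration tested. Otherwise, values were interpolated linearly from a five-concentration, 48-hour dose response in 96-well plates. GI50 marks 50% less growth. TGI denotes the concentration required for complete inhibition of growth.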
Key:
Assay in all cases: NCI tumour cell line growth inhibition, 48 h
U251 CNS = test system: U251 CNS
SF-295 CNS = test system: SF-295 CNS
NCI/ADR-RES ovarian = test system: NCI/ADR-RES ovarian
IGROV1 ovarian = test system: IGROV1 ovarian
UACC-62 melanoma = test system: UACC-62 melanoma
MDA-MB-231 breast = test system: MDA-MB-231 breast
KM12 colon = test system: KM12 colon
TK-10 renal = test system: TK-10 renal
SF-539 CNS = test system: SF-539 CNS
SF-268 CNS = test system: SF-268 CNS
CAKI-1 renal = test system: CAKI-1 renal
A549 NSCLC = test system: A549 NSCLC
PC-3 prostate = test system: PC-3 prostate
COLO 205 colon = test system: COLO 205 colon
HCC-2998 colon = test system: HCC-2998 colon
SK-MEL-5 melanoma = test system: SK-MEL-5 melanoma
RPMI-8226 leukemia = test system: RPMI-8226 leukemia
NCI-H460 lung = test system: NCI-H460 lung
OVCAR-5 ovarian = test system: OVCAR-5 ovarian
OVCAR-3 ovarian = test system: OVCAR-3 ovarian
MDA-MB-435 = test system: MDA-MB-435
HS 578T breast = test system: HS 578T breast
OVCAR-8 ovarian = test system: OVCAR-8 ovarian
MCF7 breast = test system: MCF7 breast
DU-145 prostate = test system: DU-145 prostate
CCRF-CEM leukemia = test system: CCRF-CEM leukemia
A498 renal = test system: A498 renal
UO-31 renal = test system: UO-31 renal
UACC-257 melanoma = test system: UACC-257 melanoma
M14 melanoma = test system: M14 melanoma
SK-MEL-28 melanoma = test system: SK-MEL-28 melanoma
LOX IMVI melanoma = test system: LOX IMVI melanoma
T-47D breast = test system: T-47D breast
ACHN renal = test system: ACHN renal
MOLT-4 leukemia = test system: MOLT-4 leukemia
HT29 colon = test system: HT29 colon
HCT-116 colon = test system: HCT-116 colon
HOP-62 NSCLC = test system: HOP-62 NSCLC
NCI-H226 lung = test system: NCI-H226 lung
BT-549 breast = test system: BT-549 breast
SK-OV-3 ovarian = test system: SK-OV-3 ovarian
SN12C renal = test system: SN12C renal
SNB-19 CNS = test system: SNB-19 CNS
786-0 renal = test system: 786-0 renal
K-562 leukemia = test system: K-562 leukemia
SNB-75 CNS = test system: SNB-75 CNS
MALME-3M melanoma = test system: MALME-3M melanoma
NCI-H522 lung = test system: NCI-H522 lung
SW-620 colon = test system: SW-620 colon
RXF 393 renal = test system: RXF 393 renal
HOP-92 NSCLC = test system: HOP-92 NSCLC
OVCAR-4 ovarian = test system: OVCAR-4 ovarian
EKVX NSCLC = test system: EKVX NSCLC
HCT-15 colon = test system: HCT-15 colon

O=S(=O)(NCCCNc1nccc(-c2[nH]c(-c3ccccc3)nc2-c2ccc(F)c(O)c2)n1)c1ccc(C(F)(F)F)cc1
GI50 (U251 CNS): 3.15 µM
TGI (U251 CNS): 9.85 µM
GI50 (SF-295 CNS): 1.88 µM
TGI (SF-295 CNS): 3.58 µM
GI50 (NCI/ADR-RES ovarian): 3.88 µM
TGI (NCI/ADR-RES ovarian): 18.9 µM
GI50 (IGROV1 ovarian): 2.41 µM
TGI (IGROV1 ovarian): 6.72 µM
GI50 (UACC-62 melanoma): 1.29 µM
TGI (UACC-62 melanoma): 2.82 µM
GI50 (MDA-MB-231 breast): 2.75 µM
TGI (MDA-MB-231 breast): 8.44 µM
GI50 (KM12 colon): 3.05 µM
TGI (KM12 colon): 9.09 µM
GI50 (TK-10 renal): 3.79 µM
TGI (TK-10 renal): 28.1 µM
GI50 (SF-539 CNS): 2 µM
TGI (SF-539 CNS): 3.85 µM
GI50 (SF-268 CNS): 2.55 µM
TGI (SF-268 CNS): 7.25 µM
GI50 (CAKI-1 renal): 2.57 µM
TGI (CAKI-1 renal): 13.8 µM
GI50 (A549 NSCLC): 3.04 µM
TGI (A549 NSCLC): 12.4 µM
GI50 (PC-3 prostate): 3.08 µM
TGI (PC-3 prostate): > 100 µM
GI50 (COLO 205 colon): 3.06 µM
TGI (COLO 205 colon): 9.77 µM
GI50 (HCC-2998 colon): 2.8 µM
TGI (HCC-2998 colon): 6.53 µM
GI50 (SK-MEL-5 melanoma): 1.69 µM
TGI (SK-MEL-5 melanoma): 3.23 µM
GI50 (RPMI-8226 leukemia): 2.49 µM
TGI (RPMI-8226 leukemia): 7.05 µM
GI50 (NCI-H460 lung): 2.26 µM
TGI (NCI-H460 lung): 5.07 µM
GI50 (OVCAR-5 ovarian): 3.12 µM
TGI (OVCAR-5 ovarian): 9.26 µM
GI50 (OVCAR-3 ovarian): 2.62 µM
TGI (OVCAR-3 ovarian): 5.49 µM
GI50 (MDA-MB-435): 1.59 µM
TGI (MDA-MB-435): 3.7 µM
GI50 (HS 578T breast): 2.71 µM
TGI (HS 578T breast): 7.12 µM
GI50 (OVCAR-8 ovarian): 3.37 µM
TGI (OVCAR-8 ovarian): > 100 µM
GI50 (MCF7 breast): 2.82 µM
TGI (MCF7 breast): 10.4 µM
GI50 (DU-145 prostate): 3.06 µM
TGI (DU-145 prostate): 11.5 µM
GI50 (CCRF-CEM leukemia): 3.46 µM
TGI (CCRF-CEM leukemia): > 100 µM
GI50 (A498 renal): 2.68 µM
TGI (A498 renal): 7.38 µM
GI50 (UO-31 renal): 2.69 µM
TGI (UO-31 renal): 7.17 µM
GI50 (UACC-257 melanoma): 2.48 µM
TGI (UACC-257 melanoma): 7.33 µM
GI50 (M14 melanoma): 1.46 µM
TGI (M14 melanoma): 4.09 µM
GI50 (SK-MEL-28 melanoma): 1.61 µM
TGI (SK-MEL-28 melanoma): 4.46 µM
GI50 (LOX IMVI melanoma): 2.01 µM
TGI (LOX IMVI melanoma): 4.78 µM
GI50 (T-47D breast): 2.56 µM
TGI (T-47D breast): 22 µM
GI50 (ACHN renal): 2.85 µM
TGI (ACHN renal): 8.78 µM
GI50 (MOLT-4 leukemia): 3.02 µM
TGI (MOLT-4 leukemia): > 100 µM
GI50 (HT29 colon): 2.96 µM
GI50 (HCT-116 colon): 2.18 µM
TGI (HCT-116 colon): 5.11 µM
GI50 (HOP-62 NSCLC): 2.89 µM
TGI (HOP-62 NSCLC): 10.9 µM
GI50 (NCI-H226 lung): 3.85 µM
TGI (NCI-H226 lung): 16.7 µM
GI50 (BT-549 breast): 2.53 µM
TGI (BT-549 breast): 7.12 µM
GI50 (SK-OV-3 ovarian): 3.46 µM
TGI (SK-OV-3 ovarian): 18.8 µM
GI50 (SN12C renal): 2.59 µM
TGI (SN12C renal): 7.62 µM
GI50 (SNB-19 CNS): 3.51 µM
TGI (SNB-19 CNS): 11.1 µM
GI50 (786-0 renal): 3.52 µM
TGI (786-0 renal): 11.7 µM
GI50 (K-562 leukemia): 2.87 µM
TGI (K-562 leukemia): > 100 µM
GI50 (SNB-75 CNS): 2.22 µM
TGI (SNB-75 CNS): 7.79 µM
GI50 (MALME-3M melanoma): 1.21 µM
TGI (MALME-3M melanoma): 3.47 µM
GI50 (NCI-H522 lung): 2.42 µM
TGI (NCI-H522 lung): 7.12 µM
GI50 (SW-620 colon): 4.09 µM
TGI (SW-620 colon): 15 µM
GI50 (RXF 393 renal): 2.3 µM
TGI (RXF 393 renal): 5 µM
GI50 (HOP-92 NSCLC): 2.15 µM
TGI (HOP-92 NSCLC): 9.16 µM
GI50 (OVCAR-4 ovarian): 3.62 µM
TGI (OVCAR-4 ovarian): 24.1 µM
GI50 (EKVX NSCLC): 3.61 µM
TGI (EKVX NSCLC): 16 µM
GI50 (HCT-15 colon): 3.04 µM
TGI (HCT-15 colon): 9.62 µM
